Series [1] can be described thus: Cytotoxicity against human HepG2 cells assessed as cell viability at 100 uM after 4 hrs by Cell-Titer Glo assay. In kind it is cell-based. As to conditions: read-out: Activity.
Series [2] in a line: Cytotoxicity against human HepG2 cells assessed as cell viability at 10 uM after 4 hrs by Cell-Titer Glo assay. In kind it is cell-based. As to conditions: read-out: Activity.
Series [3] can be described thus: Cytotoxicity against human HepG2 cells assessed as cell viability at 1 uM after 24 hrs by Cell-Titer Glo assay. In kind it is cell-based. The conditions noted are these: read-out: Activity.
For series [4], the system named is T1, Activin receptor type-1 (Homo sapiens), Q04771 [Q207D].
T1 sequence (whole entry): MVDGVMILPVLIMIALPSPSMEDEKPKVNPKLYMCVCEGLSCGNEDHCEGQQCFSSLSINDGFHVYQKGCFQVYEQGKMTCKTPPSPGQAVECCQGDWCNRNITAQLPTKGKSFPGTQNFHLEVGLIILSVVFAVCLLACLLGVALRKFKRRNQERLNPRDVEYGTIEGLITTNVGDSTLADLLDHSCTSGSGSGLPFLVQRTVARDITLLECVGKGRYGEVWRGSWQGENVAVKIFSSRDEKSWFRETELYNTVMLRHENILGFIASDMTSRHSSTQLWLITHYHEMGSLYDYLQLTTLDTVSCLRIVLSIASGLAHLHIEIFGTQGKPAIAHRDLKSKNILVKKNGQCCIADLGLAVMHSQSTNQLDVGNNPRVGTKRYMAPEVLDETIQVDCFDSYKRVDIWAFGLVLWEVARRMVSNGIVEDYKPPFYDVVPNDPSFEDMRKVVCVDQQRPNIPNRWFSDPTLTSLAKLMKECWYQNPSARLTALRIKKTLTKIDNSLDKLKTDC

A short description of series [5]: Cytotoxicity against human HepG2 cells assessed as cell viability at 10 uM after 24 hrs by Cell-Titer Glo assay. In kind it is cell-based. The conditions noted are these: read-out: Activity.
The nature of series [6]: Cytotoxicity against human HepG2 cells assessed as cell viability at 1 uM after 4 hrs by Cell-Titer Glo assay. In kind it is cell-based. The conditions noted are these: read-out: Activity.
In series [7] the target is T2, TGF-beta receptor type-1 (Homo sapiens) (UniProt P36897).
T2 sequence (whole entry): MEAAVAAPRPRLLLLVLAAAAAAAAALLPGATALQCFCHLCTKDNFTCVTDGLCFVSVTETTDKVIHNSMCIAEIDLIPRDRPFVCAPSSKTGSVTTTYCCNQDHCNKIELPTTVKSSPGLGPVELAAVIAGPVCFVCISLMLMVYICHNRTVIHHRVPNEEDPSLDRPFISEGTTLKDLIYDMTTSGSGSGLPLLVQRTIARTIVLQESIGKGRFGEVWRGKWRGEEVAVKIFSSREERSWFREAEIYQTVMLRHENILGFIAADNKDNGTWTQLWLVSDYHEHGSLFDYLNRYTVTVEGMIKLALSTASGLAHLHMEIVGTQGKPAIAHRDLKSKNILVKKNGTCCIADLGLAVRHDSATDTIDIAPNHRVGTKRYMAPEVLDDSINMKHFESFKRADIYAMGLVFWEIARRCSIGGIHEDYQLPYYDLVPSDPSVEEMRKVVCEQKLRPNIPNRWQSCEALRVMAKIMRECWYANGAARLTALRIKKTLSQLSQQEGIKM
Description: Inhibition of purified ALK5 kinase (unknown origin) by RT-PCR analysis

A short description of series [8]: Cytotoxicity against human HepG2 cells assessed as cell viability at 100 uM after 24 hrs by Cell-Titer Glo assay. It is filed as cell-based. As to conditions: read-out: Activity.

For orientation: ΔTm means the shift of the melting midpoint relative to a reference. As for `COc1cc(-c2cc(-c3cccc(O)c3)cnc2N)cc(OC)c1OC`, the viability at 4 h, 100 µM in series [1] was above 75%. Further, the viability at 4 h, 10 µM in series [2] is above 75%. In series [3], the viability at 24 h, 1 µM is above 75%. The ΔTm in series [4] worked out at 13.2 °C. Further, the viability at 24 h, 10 µM in series [5] is above 75%. The viability at 4 h, 1 µM in series [6] was above 75%.

As for `COc1cc(-c2cc(-c3ccc(N4CCNCC4)cc3)cnc2N)cc(OC)c1OC`, the viability at 4 h, 100 µM in series [1] was above 75%. In addition, the viability at 4 h, 10 µM in series [2] is above 75%. Besides, the ΔTm in series [7] is 13.9 °C; in series [4], 15.1 °C. Further, in series [3], the viability at 24 h, 1 µM was above 75%. In addition, the viability at 24 h, 10 µM in series [5] was above 75%. Further, the viability at 4 h, 1 µM in series [6] is above 75%.

For the compound `COc1cc(-c2cncc(-c3ccc(N4CCNCC4)cc3)c2)cc(OC)c1OC`, the viability at 4 h, 10 µM in series [2] is above 75%. Moreover, the thermal shift (ΔTm) in series [7] is 10.4 °C; in series [4], 14.1 °C. In addition, the viability at 24 h, 1 µM in series [3] is above 75%. In series [5], the viability at 24 h, 10 µM was above 75%. For the same compound, the viability at 4 h, 1 µM in series [6] is above 75%.

In the case of `COc1cc(-c2cc(-c3ccc(N4CCNCC4)cc3)cnc2C)cc(OC)c1OC`, the viability at 4 h, 100 µM in series [1] was above 75%. Also, in series [2], the viability at 4 h, 10 µM was above 75%. In addition, the viability at 24 h, 100 µM in series [8] was above 75%. The ΔTm worked out at 9.7 °C in series [7] and 13.7 °C in series [4]. For the same compound, the viability at 24 h, 1 µM in series [3] was above 75%. In addition, the viability at 24 h, 10 µM in series [5] is above 75%. Besides, the viability at 4 h, 1 µM in series [6] was above 75%.

In the case of `COc1cc2ncnc(Nc3ccc(F)c(Cl)c3)c2cc1OCCCN1CCOCC1` [GEFITINIB], in series [1], the viability at 4 h, 100 µM is above 75%. Moreover, the viability at 4 h, 10 µM in series [2] is above 75%. The viability at 24 h, 100 µM in series [8] is above 75%. Also, the viability at 24 h, 1 µM in series [3] is above 75%. Besides, the viability at 24 h, 10 µM in series [5] was above 75%. For the same compound, in series [6], the viability at 4 h, 1 µM was above 75%.

(Values after ChEMBL document CHEMBL3352089 (J Med Chem, 2014).)
